Earlier results, collected in patent US20150182479A1, “Method of delivering agmatine for medical treatment” (TOPAZ VENTURES, INC., priority 2013, published 2015).

Key:
mouse = details: FST; for effect on antidepressant like effect of fluoxetine or paroxetine: agonists ip, agmatine-raising drugs icv; for effect of prior administration on antidepressant like effect of paroxetine and fluoxetine: paroxetine 10 mg/kg ip, fluoxetine 20 mg/kg ip
mice = details: for effect on morphine analgesia: agmatine 10 mg/kg i.p. 30 min before morphine s.c.; for effect on oxycodone analgesia: agmatine 10 mg/kg i.p. 30 min before oxycodone s.c.
thermal nociception = details: for effect of antagonist on response-latency enhancement by WIN 55212-2: WIN 55212-2 2 mg/kg, SR 141716A 5 mg/kg i.p., idazoxan 2 and 5 mg/kg, yohimbine 5 mg/kg

Question: For `c1ccc2oc(C3=NCCN3)cc2c1` [2-(2-benzofuranyl)-2-imidazoline], which “effect on antidepressant like effect of fluoxetine or paroxetine” value (from here on “effect on antidepressant like effect”) (mouse) is on record?
Answer: potentiated

Question: With `Cc1noc(NS(=O)(=O)c2cccc3c(N(C)C)cccc23)c1C` [BMS 182874] as the compound, how does the “tail-flick latency, drug alone” value (mice; 360-min observation period) read?
Answer: did not produce any change

Question: What about the “effect of pretreatment on analgesic effect produced by agmatine alone” value (mice; tail-flick, mice) of the same compound?
Answer: did not increase

Question: And the “effect on agmatine-induced potentiation of morphine and oxycodone analgesia” value (mice; tail-flick, mice)?
Answer: not altered

Question: And the “effect on morphine analgesia” value (mice; tail-flick, mice)?
Answer: potentiates

Question: And the “effect on oxycodone analgesia” value (mice; tail-flick, mice)?
Answer: potentiates

Question: With `N=C(N)NCCC[C@@H](N)C(=O)O` [D-arginine] as the compound, how does the “effect of prior administration on antidepressant like effect of paroxetine and fluoxetine” value (mouse) read?
Answer: blocked

Question: Which “effect on antidepressant like effect” value (mouse) does the source give for `N=C(N)NCCC[C@H](N)C(=O)O` [L-arginine] here?
Answer: potentiated

Question: With `Cc1c(C(=O)NN2CCCCC2)nn(-c2ccc(Cl)cc2Cl)c1-c1ccc(Cl)cc1` [SR 141716A] as the compound, how does the “effect of antagonist on response-latency enhancement by WIN 55212-2” value (thermal nociception) read?
Answer: blocked

Question: For `N=C(N)NN` [aminoguanidine], which “effect on antidepressant like effect” value (mouse) is on record?
Answer: potentiated

Question: With `NC(N)=NCCCCN=C(N)N` [arcaine] as the compound, how does the “effect on antidepressant like effect” value (mouse) read?
Answer: potentiated

Question: Which “effect on morphine analgesia” value (mice; tail-flick, mice) does the source give for `Clc1cccc(Cl)c1N=C1NCCN1` [clonidine] here?
Answer: potentiate

Question: What about the “effect on oxycodone analgesia” value (mice; tail-flick, mice) of the same compound?
Answer: potentiate

Question: What about the “effect on antidepressant like effect” value (mouse) of the same compound?
Answer: potentiated

Question: With `CCC1(C2=NCCN2)Cc2ccccc2O1` (stereo not drawn) [efaroxan] as the compound, how does the “effect of prior administration on antidepressant like effect of paroxetine and fluoxetine” value (mouse) read?
Answer: blocked

Question: Which results are given for `c1ccc2c(c1)OCC(C1=NCCN1)O2` (stereo not drawn) [idazoxan]?
Answer: effect of antagonist on response-latency enhancement by combination of WIN 55212-2 and agmatine (thermal nociception; WIN 55212-2 2 mg/kg and agmatine, yohimbine 5 mg/kg i.p.): blocked; effect of antagonist on response-latency enhancement by WIN 55212-2 (thermal nociception): attenuated; effect on BMS 182874-induced potentiation of oxycodone analgesia (mice; tail-flick, mice): blocked; effect on agmatine-induced potentiation of morphine and oxycodone analgesia (mice; tail-flick, mice): blocked; effect of prior administration on antidepressant like effect of paroxetine and fluoxetine (mouse): blocked

Question: With `COc1nc(C)nc(Cl)c1N=C1NCCN1` [moxonidine] as the compound, how does the “effect on antidepressant like effect” value (mouse) read?
Answer: potentiated

Question: Which results are given for `COC(=O)[C@@H]1[C@H]2C[C@H]3c4[nH]c5ccccc5c4CCN3C[C@@H]2CC[C@@H]1O` [yohimbine]?
Answer: effect of antagonist on response-latency enhancement by WIN 55212-2 (thermal nociception): not affected; effect on BMS 182874-induced potentiation of morphine analgesia (mice; tail-flick, mice): not affected; effect on BMS 182874-induced potentiation of oxycodone analgesia (mice; tail-flick, mice): not affected; effect on agmatine-induced potentiation of morphine and oxycodone analgesia (mice; tail-flick, mice): blocked

Question: Which “hot-plate response latency, drug given alone” value (thermal nociception; i.p., WIN 55212-2 or CP55,940 1, 2 or 3 mg/kg, agmatine 50 or 100 mg/kg) does the source give for “(−)-cis 3-(2-hydroxy-4-(1,1-dimethylheptyl)phenyl)-trans-4-(3-hydroxypropyl) cyclohexanol [CP55,940]” here?
Answer: increased

Question: For difluoromethyl ornithine, which “effect on antidepressant like effect” value (mouse) is on record?
Answer: potentiated
